Assay results: patent US12024510B2, “Pyrazolopyridine-diamides, their use as insecticide and processes for preparing the same” (PI INDUSTRIES LTD., priority 2017, dated 2024)

Tests used:
Assay type in all cases: in vivo
[1] = test system: Spodoptera litura; assay: Spodoptera litura diet incorporation method; conditions: third instar larvae, dead and moribund combined, 96 h after release
In short: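 Compound milled to <2 μm average particle size in surfactant, dispersed in water (500 ppm stock dispersion), then mixed into semi-synthetic diet at ~50° C. One starved third-instar larva per diet cell, 25° C, 70% RH; percent mortality (dead plus moribund) scored at 96 h.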

[2] = test system: Plutella xylostella; assay: whole plant or invertebrate; conditions: foliar, cabbage leaf dip, second instar larvae, dead and moribund combined, 72 h after release
In short: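 Leaf-dip bioassay: second-instar larvae, singly, fed on cabbage leaves dipped 10 s in test dispersion (bead-milled, diluted with 0.01% Triton-X to test concentration) and dried 20 min. Held at 25 °C, 70% RH; % mortality counts dead and moribund at 72 h.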

[3] = test system: Helicoverpa armigera; assay: Helicoverpa armigera diet incorporation method; conditions: third instar larvae, dead and moribund combined, 96 h after release
In short: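 Third-instar larvae, starved, were placed singly on diet pieces containing test dispersion (bead-milled in surfactant, particles under 2 μm, 500 ppm stock then diluted). Trays kept at 25° C. and 70% RH; mortality counted at 96 h, moribund larvae counted with dead.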

Measured: mortality at 300 ppm

CONC(=O)c1c(NC(=O)c2cc(OCC(F)(F)F)nn2-c2ncccc2Cl)c(C)cc2ccnn12 [Compound 16, 6-(1-(3-chloropyridin-2-yl)-3-(2,2,2-trifluoroethoxy)-1H-pyrazole-5-carboxamido)-N-methoxy-5-methylpyrazolo[1,5-a]pyridine-7-carboxamide]
> 70%: all assays above

Cc1cc2ccnn2c(C(=O)NC(C)C2CC2)c1NC(=O)c1cc(Br)nn1-c1ncccc1Cl (stereo not drawn) [Compound 95, 6-(3-bromo-1-(3-chloropyridin-2-yl)-1H-pyrazole-5-carboxamido)-N-(1-cyclopropylethyl)-5-methylpyrazolo[1,5-a]pyridine-7-carboxamide]
> 70%: all assays above

C=CCNC(=O)c1c(NC(=O)c2cc(Br)nn2-c2ncccc2Cl)c(C)cc2ccnn12 [Compound 6, N-allyl-6-(3-bromo-1-(3-chloropyridin-2-yl)-1H-pyrazole-5-carboxamido)-5-methylpyrazolo[1,5-a]pyridine-7-carboxamide]
> 70%: all assays above

CC(C)(C)NC(=O)c1c(NC(=O)c2cc(Br)nn2-c2ncccc2Cl)c(Br)cc2ccnn12 [Compound 53, 5-bromo-6-(3-bromo-1-(3-chloropyridin-2-yl)-1H-pyrazole-5-carboxamido)-N-(tert-butyl)pyrazolo[1,5-a]pyridine-7-carboxamide]
> 70%: all assays above

C#CCNC(=O)c1c(NC(=O)c2cc(C(F)(F)F)nn2-c2ncccc2Cl)c(C)cc2ccnn12 [Compound 108, 6-(1-(3-chloropyridin-2-yl)-3-(trifluoromethyl)-1H-pyrazole-5-carboxamido)-5-methyl-N-(prop-2-yn-1-yl)pyrazolo[1,5-a]pyridine-7-carboxamide]
> 70%: all assays above

Cc1cc2ccnn2c(C(=O)NC2COC2)c1NC(=O)c1cc(Br)nn1-c1ncccc1Cl [Compound 35, 6-(3-bromo-1-(3-chloropyridin-2-yl)-1H-pyrazole-5-carboxamido)-5-methyl-N-(oxetan-3-yl)pyrazolo[1,5-a]pyridine-7-carboxamide]
> 70%: all assays above

O=C(Nc1c(Br)cc2ccnn2c1C(=O)NC1CC1)c1cc(Br)nn1-c1ncccc1Cl [Compound 52, 5-bromo-6-(3-bromo-1-(3-chloropyridin-2-yl)-1H-pyrazole-5-carboxamido)-N-cyclopropylpyrazolo[1,5-a]pyridine-7-carboxamide]
> 70%: all assays above

Cc1cc2ccnn2c(C(=O)NC2CC2)c1NC(=O)c1cc(OCC(F)(F)F)nn1-c1ncccc1Cl [Compound 13, 6-(1-(3-chloropyridin-2-yl)-3-(2,2,2-trifluoroethoxy)-1H-pyrazole-5-carboxamido)-N-cyclopropyl-5-methylpyrazolo[1,5-a]pyridine-7-carboxamide]
> 70%: all assays above

COc1cc(C(=O)Nc2c(C)cc3ccnn3c2C(=O)NC(C)(C)CO)n(-c2ncccc2Cl)n1 [Compound 197, 6-(1-(3-chloropyridin-2-yl)-3-methoxy-1H-pyrazole-5-carboxamido)-N-(1-hydroxy-2-methylpropan-2-yl)-5-methylpyrazolo[1,5-a]pyridine-7-carboxamide]
> 70%: all assays above

CCNC(=O)c1c(NC(=O)c2cc(OC)nn2-c2ncccc2Cl)c(Cl)cc2ccnn12 [Compound 134, 5-chloro-6-(1-(3-chloropyridin-2-yl)-3-methoxy-1H-pyrazole-5-carboxamido)-N-ethylpyrazolo[1,5-a]pyridine-7-carboxamide]
> 70%: all assays above

COCCNC(=O)c1c(NC(=O)c2cc(Br)nn2-c2ncccc2Cl)c(C)cc2ccnn12 [Compound 7, 6-(3-bromo-1-(3-chloropyridin-2-yl)-1H-pyrazole-5-carboxamido)-N-(2-methoxyethyl)-5-methylpyrazolo[1,5-a]pyridine-7-carboxamide]
> 70%: all assays above

COc1cc(C(=O)Nc2c(Cl)cc3ccnn3c2C(=O)NCC(F)(F)F)n(-c2ncccc2Cl)n1 [Compound 137, 5-chloro-6-(1-(3-chloropyridin-2-yl)-3-methoxy-1H-pyrazole-5-carboxamido)-N-(2,2,2-trifluoroethyl)pyrazolo[1,5-a]pyridine-7-carboxamide]
> 70%: all assays above

CNC(=O)c1c(NC(=O)c2cc(C(F)(F)F)nn2-c2ncccc2Cl)c(Cl)cc2ccnn12 [Compound 162, 5-chloro-6-(1-(3-chloropyridin-2-yl)-3-(trifluoromethyl)-1H-pyrazole-5-carboxamido)-N-methylpyrazolo[1,5-a]pyridine-7-carboxamide]
> 70%: all assays above

Cc1cc2ccnn2c(C(=O)NCC(F)(F)F)c1NC(=O)c1cc(C(F)(F)F)nn1-c1ncccc1Cl [Compound 109, 6-(1-(3-chloropyridin-2-yl)-3-(trifluoromethyl)-1H-pyrazole-5-carboxamido)-5-methyl-N-(2,2,2-trifluoroethyl)pyrazolo[1,5-a]pyridine-7-carboxamide]
> 70%: all assays above

COc1cc(C(=O)Nc2c(C)cc3ccnn3c2C(=O)NCC2CCOCC2)n(-c2ncccc2Cl)n1 [Compound 201, 6-(1-(3-chloropyridin-2-yl)-3-methoxy-1H-pyrazole-5-carboxamido)-5-methyl-N-((tetrahydro-2H-pyran-4-yl)methyl)pyrazolo[1,5-a]pyridine-7-carboxamide]
> 70%: all assays above

COc1cc(C(=O)Nc2c(C)cc3ccnn3c2C(=O)NCCC#N)n(-c2ncccc2Cl)n1 [Compound 41, 6-(1-(3-chloropyridin-2-yl)-3-methoxy-1H-pyrazole-5-carboxamido)-N-(2-cyanoethyl)-5-methylpyrazolo[1,5-a]pyridine-7-carboxamide]
> 70%: all assays above

CCNC(=O)c1c(NC(=O)c2cc(Cn3nnc(C(F)(F)F)n3)nn2-c2ncccc2Cl)c(C)cc2ccnn12 [Compound 167, 6-(1-(3-chloropyridin-2-yl)-3-((5-(trifluoromethyl)-2H-tetrazol-2-yl)methyl)-1H-pyrazole-5-carboxamido)-N-ethyl-5-methylpyrazolo[1,5-a]pyridine-7-carboxamide]
> 70%: all assays above

CONC(=O)c1c(NC(=O)c2cc(Br)nn2-c2ncccc2Cl)c(Br)cc2ccnn12 [Compound 87, 5-bromo-6-(3-bromo-1-(3-chloropyridin-2-yl)-1H-pyrazole-5-carboxamido)-N-methoxypyrazolo[1,5-a]pyridine-7-carboxamide]
> 70%: all assays above

CONC(=O)c1c(NC(=O)c2cc(OC)nn2-c2ncccc2Cl)c(C)cc2ccnn12 [Compound 42, 6-(1-(3-chloropyridin-2-yl)-3-methoxy-1H-pyrazole-5-carboxamido)-N-methoxy-5-methylpyrazolo[1,5-a]pyridine-7-carboxamide]
> 70%: all assays above

COc1cc(C(=O)Nc2c(C)cc3ccnn3c2C(=O)NCC2CCCC2)n(-c2ncccc2Cl)n1 [Compound 203, 6-(1-(3-chloropyridin-2-yl)-3-methoxy-1H-pyrazole-5-carboxamido)-N-(cyclopentylmethyl)-5-methylpyrazolo[1,5-a]pyridine-7-carboxamide]
> 70%: all assays above

COc1cc(C(=O)Nc2c(C)cc3ccnn3c2C(=O)NC(C)(C)C)n(-c2ncccc2Cl)n1 [Compound 30, N-(tert-butyl)-6-(1-(3-chloropyridin-2-yl)-3-methoxy-1H-pyrazole-5-carboxamido)-5-methylpyrazolo[1,5-a]pyridine-7-carboxamide]
> 70%: all assays above
